Results published in US9205130B2, “Orally administrable pharmaceutical pellet of epidermal growth factor” (CENTRO DE INGENIERIA GENETICA Y BIOTECNOLOGIA, priority 2010, dated 2015).

Test system: 3T3 A31 cells
Assay: Biological activity: induction of proliferation of 3T3 A31 cells, crystal violet
Assay type: cell-based, mouse
Conditions: before being formulated in form of capsule
Method: The activity of epidermal growth factor in capsules of example 1 packaged in blisters and stored at temperatures of 5±3° C. were tested. This biological test is based on the capacity of the epidermal growth factor human recombinant (EGF Hu-r) to induce the proliferation of cell lines of mouse embryos of 3T3/A3 which are extremely sensitive to contact inhibition cell division.
For determining the capability of induction of cell proliferation of EGF and its duration, the method comprises the quantification of the absorption of colorant crystal violet by the living cells 3T3 A31.
The preparation of samples of EGF comprises the addition of 100 ml of phosphate saline buffer (PBS1×) to the content of 10 capsules of Example 1, maintaining agitation for 15 minutes. The resultant suspension was centrifuged for 5 minutes at 9000 rpm and the aqueous solution was collected.
Cells 3T3 A31 in 96-plates at a concentration of 1.5×10^5 cells/mL were sown. These plates were incubated at 37° C., 5% CO2 and 95% humidity for 24 hours.
After completing the incubation time, cells were washed twice with 100 μl of PBS1× and then 100 μl of DMEM 1× without fetal bovine serum (SFB) was added to the medium and plates were incubated at 37° C., 5% CO2 and 95% humidity for another 24 hours. […]

epidermal growth factor [epidermal growth factor human recombinant, before being formulated in form of capsule]
Reference biological activity of EGF: 2×10^6 UI/mg
